# Experimental data as given in patent US20070128217A1 (priority 2003, published 2007).
# Legend:
# [1] = system: control sera (pooled serum of ten healthy LUMC hospital workers; commercial negative donor pooled serum from the Dutch bloodbank); format: binding, human; design: Binding of Control serum LUMC to linear peptides / Binding of Control serum Blood-bank to linear peptides / Binding of Control serum LUMC to looped peptides / Binding of Control Serum Blood-Bank to Looped peptides / Binding of Control serum LUMC to linear peptides of the protein M of SARS-CoV Urbani / Binding of Control serum Blood-bank to linear peptides of the protein M of SARS-CoV Urbani / Binding of Control serum LUMC to looped peptides of the protein M of SARS-CoV Urbani / Binding of Control Serum Blood-Bank to Looped peptides of the protein M of SARS-CoV Urbani: unit not given here
# [2] = system: rabbit serum obtained by immunizing a rabbit with the SARS-CoV strain Frankfurt 1; format: binding; design: Binding of a rabbit serum to linear peptides / Binding of a rabbit serum to looped peptides / Rabbit serum linear peptides / Rabbit serum looped peptides / Binding of a rabbit serum to linear peptides of protein N of SARS-CoV Urbani (Rabbit serum linear peptides) / Binding of a rabbit serum to looped/cyclic peptides of protein N of SARS-CoV Urbani (Rabbit serum looped peptides): unit not given here
# [3] = system: antibodies in sera from SARS patients (sera 1a, 1b, 2, 6, 37, 62, London, SARS-yellow, SARS-green); format: binding, human; design: Binding of serum 6 to linear peptides of protein X1 of SARS-CoV Urbani / Binding of serum 37 to linear peptides of protein X1 of SARS-CoV Urbani / Binding of serum 6 to looped/cyclic peptide (PEPSCAN-ELISA) / Binding of serum 37 to looped/cyclic peptide (PEPSCAN-ELISA) / Binding of serum 37 to looped/cyclic peptides of protein X1 of SARS-CoV Urbani / Binding of serum 6 to linear peptides of protein X2 / Binding of serum 37 to linear peptides of protein X2 / Binding of serum 37 to looped/cyclic peptides of protein X2 of SARS-CoV Urbani / Binding of serum 6 to linear peptides of protein M of SARS-CoV Urbani / Binding of serum 37 to linear peptides of protein M of SARS-CoV Urbani / Binding of serum 6 to looped/cyclic peptides of protein M of SARS-CoV Urbani / Binding of serum 37 to looped/cyclic peptides of protein M of SARS-CoV Urbani / Binding of serum 6 to linear peptides of protein X3 of SARS-CoV Urbani / Binding of serum 37 to linear peptides of protein X3 of SARS-CoV Urbani / Binding of serum 37 to looped/cyclic peptides of protein X3 of SARS-CoV Urbani / Binding of serum 6 to linear peptides of protein X4 of SARS-CoV Urbani / Binding of serum 37 to linear peptides of protein X4 of SARS-CoV Urbani / Binding of serum 37 to looped/cyclic peptides of protein X4 of SARS-CoV Urbani / Binding of serum 6 to linear peptides of protein X5 of SARS-CoV Urbani / Binding of serum 37 to linear peptides of protein X5 of SARS-CoV Urbani / Binding of serum 37 to looped/cyclic peptides of protein X5 of SARS-CoV Urbani / Binding of serum 6 to linear peptides of protein N of SARS-CoV Urbani / Binding of serum 37 to linear peptides of protein N of SARS-CoV Urbani / Binding of serum 6 to linear peptide (PEPSCAN-ELISA) / Binding of serum 1a to looped/cyclic peptides of protein N of SARS-CoV Urbani / Binding of serum 1b to looped/cyclic peptides of protein N of SARS-CoV Urbani / Binding of serum 2 to looped/cyclic peptides of protein N of SARS-CoV Urbani / Binding of serum 6 to looped/cyclic peptides of protein N of SARS-CoV Urbani / Binding of serum 37 to looped/cyclic peptides of protein N of SARS-CoV Urbani / Binding of serum 62 to looped/cyclic peptides of protein N of SARS-CoV Urbani / Binding of serum London to looped/cyclic peptides of protein N of SARS-CoV Urbani / Binding of serum SARS-green to looped/cyclic peptides of protein N of SARS-CoV Urbani: unit not given here
sequence,measurement,setting,value
LFLTLIVFTSCELYH,Binding of Control Serum Blood-Bank to Looped peptides,[1],0.9
same,Binding of Control serum Blood-bank to linear peptides,[1],0.7
same,Binding of Control serum LUMC to linear peptides,[1],0.7
same,Binding of Control serum LUMC to looped peptides,[1],0.9
same,Rabbit serum linear peptides,[2],0.7
same,Rabbit serum looped peptides,[2],0.4
same,Binding of serum 1a to linear peptides of protein X4 of SARS-CoV Urbani,[3],0.7
same,Binding of serum 1a to looped/cyclic peptides of protein X4 of SARS-CoV Urbani,[3],0.9
same,Binding of serum 1b to linear peptides of protein X4 of SARS-CoV Urbani,[3],0.7
same,Binding of serum 1b to looped/cyclic peptides of protein X4 of SARS-CoV Urbani,[3],0.8
same,Binding of serum 2 to linear peptides of protein X4 of SARS-CoV Urbani,[3],0.5
same,Binding of serum 2 to looped/cyclic peptides of protein X4 of SARS-CoV Urbani,[3],0.8
same,Binding of serum 6 to linear peptides of protein X4 of SARS-CoV Urbani,[3],0.5
same,Binding of serum 6 to looped/cyclic peptides of protein X4 of SARS-CoV Urbani,[3],0.7
same,Binding of serum 37 to linear peptides of protein X4 of SARS-CoV Urbani,[3],0.7
same,Binding of serum 37 to looped/cyclic peptides of protein X4 of SARS-CoV Urbani,[3],0.9
same,Binding of serum 62 to linear peptides of protein X4 of SARS-CoV Urbani,[3],0.7
same,Binding of serum 62 to looped/cyclic peptides of protein X4 of SARS-CoV Urbani,[3],0.9
same,Binding of serum London to linear peptides of protein X4 of SARS-CoV Urbani,[3],0.6
same,Binding of serum London to looped/cyclic peptides of protein X4 of SARS-CoV Urbani,[3],0.3
same,Binding of serum SARS-green to linear peptides of protein X4 of SARS-CoV Urbani,[3],0.7
same,Binding of serum SARS-green to looped/cyclic peptides of protein X4 of SARS-CoV Urbani,[3],0.7
same,Binding of serum SARS-yellow to linear peptides of protein X4 of SARS-CoV Urbani,[3],0.6
same,Binding of serum SARS-yellow to looped/cyclic peptides of protein X4 of SARS-CoV Urbani,[3],0.6
CKHKKVSTNLCTHSF,Binding of Control Serum Blood-Bank to Looped peptides,[1],0.1
same,Binding of Control serum Blood-bank to linear peptides,[1],0.8
same,Binding of Control serum LUMC to linear peptides,[1],1.0
same,Binding of Control serum LUMC to looped peptides,[1],0.4
same,Binding of a rabbit serum to linear peptides,[2],0.3
same,Binding of a rabbit serum to looped peptides,[2],0.5
same,Binding of serum 1a to looped/cyclic peptides of protein X2 of SARS-CoV Urbani,[3],0.7
same,Binding of serum 1b to looped/cyclic peptides of protein X2 of SARS-CoV Urbani,[3],0.7
same,Binding of serum 2 to looped/cyclic peptides of protein X2 of SARS-CoV Urbani,[3],0.4
same,Binding of serum 6 to looped/cyclic peptides of protein X2 of SARS-CoV Urbani,[3],0.3
same,Binding of serum 37 to looped/cyclic peptides of protein X2 of SARS-CoV Urbani,[3],0.6
same,Binding of serum 62 to looped/cyclic peptides of protein X2 of SARS-CoV Urbani,[3],0.5
same,Binding of serum London to looped/cyclic peptides of protein X2 of SARS-CoV Urbani,[3],0.3
same,Binding of serum SARS-green to looped/cyclic peptides of protein X2 of SARS-CoV Urbani,[3],0.4
same,Binding of serum SARS-yellow to looped/cyclic peptides of protein X2 of SARS-CoV Urbani,[3],0.9
same,"Recognition of the peptide by sera of SARS-CoV infected individuals, and form (linear, looped/cyclic) in which it is recognized",[3],recognized in linear form
FQFICNLLLLFVTIY,Binding of Control Serum Blood-Bank to Looped peptides,[1],0.4
same,Binding of Control serum Blood-bank to linear peptides,[1],0.5
same,Binding of Control serum LUMC to linear peptides,[1],0.5
same,Binding of Control serum LUMC to looped peptides,[1],0.3
same,Binding of a rabbit serum to linear peptides,[2],0.9
same,Binding of a rabbit serum to looped peptides,[2],0.0
same,Binding of serum 1a to linear peptides of protein X1 of SARS-CoV Urbani,[3],0.6
same,Binding of serum 1a to looped/cyclic peptide (PEPSCAN-ELISA),[3],0.2
same,Binding of serum 1b to linear peptides of protein X1 of SARS-CoV Urbani,[3],0.5
same,Binding of serum 1b to looped/cyclic peptide (PEPSCAN-ELISA),[3],0.0
same,Binding of serum 2 to linear peptides of protein X1 of SARS-CoV Urbani,[3],0.5
same,Binding of serum 2 to looped/cyclic peptide (PEPSCAN-ELISA),[3],0.0
same,Binding of serum 6 to linear peptides of protein X1 of SARS-CoV Urbani,[3],0.3
same,Binding of serum 6 to looped/cyclic peptide (PEPSCAN-ELISA),[3],0.2
same,Binding of serum 37 to linear peptides of protein X1 of SARS-CoV Urbani,[3],0.5
same,Binding of serum 37 to looped/cyclic peptide (PEPSCAN-ELISA),[3],0.0
same,Binding of serum 62 to linear peptides of protein X1 of SARS-CoV Urbani,[3],0.5
same,Binding of serum 62 to looped/cyclic peptide (PEPSCAN-ELISA),[3],0.2
same,Binding of serum London to linear peptides of protein X1 of SARS-CoV Urbani,[3],0.2
same,Binding of serum London to looped/cyclic peptide (PEPSCAN-ELISA),[3],0.1
same,Binding of serum SARS-green to linear peptides of protein X1 of SARS-CoV Urbani,[3],0.1
same,Binding of serum SARS-green to looped/cyclic peptide (PEPSCAN-ELISA),[3],0.4
same,Binding of serum SARS-yellow to linear peptides of protein X1 of SARS-CoV Urbani,[3],0.5
same,Binding of serum SARS-yellow to looped/cyclic peptide (PEPSCAN-ELISA),[3],0.0
TNILLNVPLRGTIVT,Binding of Control Serum Blood-Bank to Looped peptides of the protein M of SARS-CoV Urbani,[1],0.8
same,Binding of Control serum Blood-bank to linear peptides of the protein M of SARS-CoV Urbani,[1],0.8
same,Binding of Control serum LUMC to linear peptides of the protein M of SARS-CoV Urbani,[1],0.7
same,Binding of Control serum LUMC to looped peptides of the protein M of SARS-CoV Urbani,[1],0.6
same,Rabbit serum linear peptides,[2],0.2
same,Rabbit serum looped peptides,[2],0.1
same,Binding of serum 1a to linear peptides of protein M of SARS-CoV Urbani,[3],0.6
same,Binding of serum 1a to looped/cyclic peptides of protein M of SARS-CoV Urbani,[3],0.6
same,Binding of serum 1b to linear peptides of protein M of SARS-CoV Urbani,[3],0.5
same,Binding of serum 1b to looped/cyclic peptides of protein M of SARS-CoV Urbani,[3],0.4
same,Binding of serum 2 to linear peptides of protein M of SARS-CoV Urbani,[3],0.6
same,Binding of serum 2 to looped/cyclic peptides of protein M of SARS-CoV Urbani,[3],0.6
same,Binding of serum 6 to linear peptides of protein M of SARS-CoV Urbani,[3],0.4
same,Binding of serum 6 to looped/cyclic peptides of protein M of SARS-CoV Urbani,[3],0.8
same,Binding of serum 37 to linear peptides of protein M of SARS-CoV Urbani,[3],0.4
same,Binding of serum 37 to looped/cyclic peptides of protein M of SARS-CoV Urbani,[3],0.7
same,Binding of serum 62 to linear peptides of protein M of SARS-CoV Urbani,[3],0.5
same,Binding of serum 62 to looped/cyclic peptides of protein M of SARS-CoV Urbani,[3],0.6
same,Binding of serum London to linear peptides of protein M of SARS-CoV Urbani,[3],0.3
same,Binding of serum London to looped/cyclic peptides of protein M of SARS-CoV Urbani,[3],0.2
same,Binding of serum SARS-green to linear peptides of protein M of SARS-CoV Urbani,[3],0.5
same,Binding of serum SARS-green to looped/cyclic peptides of protein M of SARS-CoV Urbani,[3],0.2
same,Binding of serum SARS-yellow to linear peptides of protein M of SARS-CoV Urbani,[3],0.2
same,Binding of serum SARS-yellow to looped/cyclic peptides of protein M of SARS-CoV Urbani,[3],0.4
YVVVHGYFTEVYYQL,Binding of Control Serum Blood-Bank to Looped peptides,[1],0.5
same,Binding of Control serum Blood-bank to linear peptides,[1],0.4
same,Binding of Control serum LUMC to linear peptides,[1],1.0
same,Binding of Control serum LUMC to looped peptides,[1],0.9
same,Binding of a rabbit serum to linear peptides,[2],0.1
same,Binding of a rabbit serum to looped peptides,[2],0.5
same,Binding of serum 1a to linear peptides of protein X1 of SARS-CoV Urbani,[3],0.7
same,Binding of serum 1a to looped/cyclic peptides of protein X1 of SARS-CoV Urbani,[3],0.6
same,Binding of serum 1b to linear peptides of protein X1 of SARS-CoV Urbani,[3],0.6
same,Binding of serum 1b to looped/cyclic peptides of protein X1 of SARS-CoV Urbani,[3],0.5
same,Binding of serum 2 to linear peptides of protein X1 of SARS-CoV Urbani,[3],0.5
same,Binding of serum 2 to looped/cyclic peptides of protein X1 of SARS-CoV Urbani,[3],0.5
same,Binding of serum 6 to linear peptides of protein X1 of SARS-CoV Urbani,[3],0.3
same,Binding of serum 6 to looped/cyclic peptides of protein X1 of SARS-CoV Urbani,[3],0.3
same,Binding of serum 37 to linear peptides of protein X1 of SARS-CoV Urbani,[3],0.5
same,Binding of serum 37 to looped/cyclic peptides of protein X1 of SARS-CoV Urbani,[3],0.4
same,Binding of serum 62 to linear peptides of protein X1 of SARS-CoV Urbani,[3],0.4
same,Binding of serum 62 to looped/cyclic peptides of protein X1 of SARS-CoV Urbani,[3],0.4
same,Binding of serum London to linear peptides of protein X1 of SARS-CoV Urbani,[3],0.2
same,Binding of serum London to looped/cyclic peptides of protein X1 of SARS-CoV Urbani,[3],0.2
same,Binding of serum SARS-green to linear peptides of protein X1 of SARS-CoV Urbani,[3],0.1
same,Binding of serum SARS-green to looped/cyclic peptides of protein X1 of SARS-CoV Urbani,[3],0.2
same,Binding of serum SARS-yellow to linear peptides of protein X1 of SARS-CoV Urbani,[3],0.2
same,Binding of serum SARS-yellow to looped/cyclic peptides of protein X1 of SARS-CoV Urbani,[3],0.4
